Data as given in paper PMC8123576 (International Journal of Molecular Sciences, 2021).
Where two headings read alike, the source gives them in different places.

How the values were obtained:
[1] = test system: aflatoxin accumulation by A. flavus; test: microbe, parasite or virus in culture; format: cell-based, Aspergillus flavus
Hs27 cells = test: Cytotoxicity assay (CellTiter 96 AQueous One) on Hs27; format: cell-based, human; conditions: for viability: Hs27, 24 h, dose 0 = 100.00, read-out: Growth inhibition data; for GI50: Hs27 cells, 24 h treatment
Protocol: The best antifungal and/or antiaflatoxigenic compounds were tested to determine their cytotoxic activity against human normal cell lines deriving from lung (HFL1, ATCC and CCL-153), skin (Hs27, ATCC, CRL1634) and colon (Crl1790, ATCC, CCD 841 CoN) and a cell line deriving from a hematological tumor (U937, ATCC and CRL-3253). These different cell lines have been chosen to simulate the different human exposition routes to pesticide. Cell culture conditions have been previously reported. Compound cytotoxicity was determined using CellTiter 96® AQueous One Solution Cell Proliferation Assay (Promega Corporation, Madison, WI, USA). The very detailed protocol was described by Bartoli et al.. In brief, cells were seeded in a 96-well plate at a density of 5000 cells/well and after 24 h cells were treated with different concentrations of the compounds (0.5–1–5–10–50–100 µM). After the treatment period (24 h), the CellTiter Reagent was added to each well (20 µL/well) and the plate incubated for 4 h at 37 °C. The plate was then read at 485 nm in a multiwell plate reader (TECAN SpectraFluor Plus, Männedorf, Switzerland).

A. flavus = test: microbe, parasite or virus in culture; format: cell-based, Aspergillus flavus; conditions: for impact on fungal growth: 10 to 100 µM, complexes compared with their ligand
A. cepa root cells = conditions: 10.0 µM
Protocol: To detect micronuclei and chromosomal aberrations six equal-sized pre-germinated young bulbs per sample were exposed for 24 h to sample dilutions. The bulbs dedicated to the micronuclei test underwent an additional treatment in the saline solution for 44 h of recovery time to cover two rounds of mitosis so that damage induced in chromosomes during mitosis to be visible as micronuclei in interphase cells. Then all the roots were fixed in acetic acid and ethanol (1:3) for 24 h and lastly stored in 70% ethanol. The negative control was DMSO in Rank’s solution (the dose of DMSO corresponding to volume of samples) and positive control was maleic hydrazide (10^−2 M, 6 h exposure). […] All experiments were performed in duplicate.

Bis(2-acetylthiophenethiosemicarbazonato) zinc(II) [2-actpTS-Zn]
A.I. (%) (aflatoxin accumulation inhibition) ([1]; 50 µM): 60,4%
A.I. (%) (aflatoxin accumulation inhibition) ([1]; 100 µM): 85,4%
viability (Hs27 cells; 0.5 µM): 91.6 ± 7.33%
viability (Hs27 cells; 1 µM): 94.3 ± 2.25%
viability (Hs27 cells; 5 µM): 81.9 ± 5.34%
viability (Hs27 cells; 10 µM): 60.1 ± 1.57%
viability (Hs27 cells; 50 µM): 15.5 ± 0.56%
viability (Hs27 cells; 100 µM): 16 ± 1.39%
GI50 (Hs27 cells): 15.4 µM

Bis(2-acetylfuranthiosemicarbazonato) zinc(II) [2-acfurTS-Zn]
impact on fungal growth compared with the ligand (A. flavus; 100 µM): slightly less effective
viability (Hs27 cells; 0.5 µM): 100 ± 7.72%
viability (Hs27 cells; 1 µM): 100 ± 7.88%
viability (Hs27 cells; 5 µM): 100 ± 7.7%
viability (Hs27 cells; 10 µM): 100 ± 12.7%
viability (Hs27 cells; 50 µM): 16.5 ± 0.62%
viability (Hs27 cells; 100 µM): 15.2 ± 0.73%
GI50 (Hs27 cells): 30.5 µM

Bis(2-acetylthiophenethiosemicarbazonato) copper(II) [2-actpTS-Cu]
A.I. (%) (aflatoxin accumulation inhibition) ([1]; 50 µM): 56,5%
A.I. (%) (aflatoxin accumulation inhibition) ([1]; 100 µM): 88,6%
viability (Hs27 cells; 0.5 µM): 90.7 ± 4.69%
viability (Hs27 cells; 1 µM): 87.1 ± 3.53%
viability (Hs27 cells; 5 µM): 72.1 ± 3.35%
viability (Hs27 cells; 10 µM): 16.2 ± 0.84%
viability (Hs27 cells; 50 µM): 14.6 ± 0.85%
viability (Hs27 cells; 100 µM): 15 ± 0.2%
GI50 (Hs27 cells): 6.2 µM

Bis(2-acetylfuranthiosemicarbazonato) copper(II) [2-acfurTS-Cu]
G.I. (%) (A. flavus growth inhibition) (A. flavus; 100 µM): 63,4%
impact on fungal growth (A. flavus): higher fungistatic activity
A.I. (%) (aflatoxin accumulation inhibition) ([1]; 100 µM): 65,7%
viability (Hs27 cells; 0.5 µM): 92.8 ± 5.53%
viability (Hs27 cells; 1 µM): 99.4 ± 4.63%
viability (Hs27 cells; 5 µM): 98.9 ± 12.1%
viability (Hs27 cells; 10 µM): 100 ± 5.93%
viability (Hs27 cells; 50 µM): 36.9 ± 6.49%
viability (Hs27 cells; 100 µM): 35.6 ± 1.89%
GI50 (Hs27 cells): 39 µM

CCCCC(=NNC(N)=S)c1ccccc1 [Valerophenone thiosemicarbazone]
G.I. (%) (A. flavus growth inhibition) (A. flavus; 100 µM): 54,0%
A.I. (%) (aflatoxin accumulation inhibition) ([1]; 100 µM): 55,0%
DNA damage as chromosomal aberrations in Allium root cells (A. cepa root cells): induced DNA damage as chromosomal aberrations

C=C(C)C1CC=C(C=NNC(N)=S)CC1 (centres unmarked) [Perillaldehyde thiosemicarbazone]
G.I. (%) (A. flavus growth inhibition) (A. flavus; 100 µM): 73,5%
A.I. (%) (aflatoxin accumulation inhibition) ([1]; 50 µM): 78,0%
A.I. (%) (aflatoxin accumulation inhibition) ([1]; 100 µM): 87,3%

CN(N=CC=Cc1ccccc1)C(N)=S [Cinnamaldehyde 2‐methyl thiosemicarbazone]
A.I. (%) (aflatoxin accumulation inhibition) ([1]; 100 µM): 64,0%
DNA damage as chromosomal aberrations in Allium root cells (A. cepa root cells): induced DNA damage as chromosomal aberrations

Mn(II) 2‐acetylthiophene bisthiosemicarbazonate
G.I. (%) (A. flavus growth inhibition) (A. flavus; 100 µM): 53,0%
A.I. (%) (aflatoxin accumulation inhibition) ([1]; 50 µM): 61,0%
A.I. (%) (aflatoxin accumulation inhibition) ([1]; 100 µM): 92,0%

Cu(II) 3,4,5‐trimethoxybenzaldehyde bisthiosemicarbazonate
G.I. (%) (A. flavus growth inhibition) (A. flavus; 100 µM): 54,0%
A.I. (%) (aflatoxin accumulation inhibition) ([1]; 100 µM): 76,0%

CC(=NNC(N)=S)c1ccco1 [2-acfurTS, 2-acetylfuranthiosemicarbazone]
impact on fungal growth (A. flavus): modest inhibitory activity
maximum aflatoxin accumulation inhibition [1]: ≤ 28.7%

CCCCCCCCC=NNC(N)=S [Nonanal thiosemicarbazone]
G.I. (%) (A. flavus growth inhibition) (A. flavus; 50 µM): 95,0%
G.I. (%) (A. flavus growth inhibition) (A. flavus; 100 µM): 100%
A.I. (%) (aflatoxin accumulation inhibition) ([1]; 50 µM): 91,0%
A.I. (%) (aflatoxin accumulation inhibition) ([1]; 100 µM): 100%

O=Cc1ccc2c(c1)C(=O)c1ccccc1C2=O [2‐Formylanthraquinone]
inhibition at 100 µM (A. flavus; Aspergillus flavus, 100 µM, read-out: G.I. (%) (A. flavus growth inhibition)): 58%
DNA damage as chromosomal aberrations in Allium root cells (A. cepa root cells): induced DNA damage as chromosomal aberrations

Ni(II) citronellal bisthiosemicarbazonate
G.I. (%) (A. flavus growth inhibition) (A. flavus; 100 µM): 58,9%
A.I. (%) (aflatoxin accumulation inhibition) ([1]; 100 µM): 82,1%

CCCCCCCC=NNC(N)=S [Octanal thiosemicarbazone]
G.I. (%) (A. flavus growth inhibition) (A. flavus; 50 µM): 82,0%
G.I. (%) (A. flavus growth inhibition) (A. flavus; 100 µM): 93,0%
A.I. (%) (aflatoxin accumulation inhibition) ([1]; 50 µM): 76,0%
A.I. (%) (aflatoxin accumulation inhibition) ([1]; 100 µM): 96,0%

Bisvanillin thiosemicarbazone
G.I. (%) (A. flavus growth inhibition) (A. flavus; 100 µM): 57,0%
A.I. (%) (aflatoxin accumulation inhibition) ([1]; 100 µM): 61,0%
